Assays:
[1] = system: Bcl-2 expression in PC-3 cells; assay: Western blotting, Bcl-2 in PC-3; type: cell-based, human; conditions: 24 h
Description: (§1) To determine protein expression, 1×10^6 cells/mL were seeded and treated with subditine (1) or paclitaxel for 24 h. Whole cell extracts were prepared as previously described. Briefly, cells were collected, lysed and resolved on 10% SDS-polyacrylamide gels. After electrophoresis, the proteins were transferred to PVDF membranes (Millipore), blocked with 5% nonfat dry milk in PBS-T (0.05% Tween 20) for 1 hour at room temperature. Membranes were probed with primary rabbit anti-Bcl-2, Bcl-xL or p53 antibodies followed by horseradish peroxidase (HRP)-conjugated secondary anti-rabbit antibody (Cell Signaling Technology Inc., CA, USA). Membranes were stripped and reprobed with mouse anti-β-actin antibody as loading control (Santa Cruz Biotechnology Inc.). Protein-antibody complexes were detected with Amersham ECL prime Western blotting detection reagent (GE Healthcare, USA).

[2] = system: glutathione reductase (GR) gene expression in PC-3 cells; assay: Oxidative stress and antioxidant defense qPCR-array, PC-3; type: cell-based, human; conditions: PC-3, 12.5 µM, 18 h, relative to control cells
Description: (§2) LNCaP and PC-3 cells were treated with subditine (1) (12.5 µM) for 18 h. RNA was extracted from PC-3 or LNCaP cells using RNeasy plus mini kit (Qiagen). 1 µg of RNA was reverse transcribed into cDNA using the RT2 first strand kit (SA Biosciences, Qiagen).cDNA was mixed with RT2 Real Time™ SYBR Green/fluorescein PCR master-mix and loaded into each 96 wells of the Human Oxidative Stress and Antioxidant Defense qPCR array according to the manufacturer’s protocol (SA Biosciences, Qiagen). Briefly, a total volume of 25 µl of PCR mixture, which included 12.5 µl of mastermix, 11.5 µl of double distilled water, and 1 µl of cDNA was loaded into each of the 96wells. qPCR were done using StepOne PLUS real-time PCR machine (Applied Biosystems). PCR amplification was conducted at 95°C for 10 min, followed by 40 cycles of 95°C for 15 sec and 60°C for 1 min. The mRNA expression for each gene was normalized using the average expression of five housekeeping genes:
(§3) β-actin (ACTB), β-2-microglobulin (β2M), hypoxanthine phosphoribosyltransferase 1 (HPRT1), ribosomal protein L13a (RPL13A) and glyceraldehyde-3-phosphate dehydrogenase (GAPDH). The ΔΔCt method was used for data analysis. Fold changes were calculated for each gene as the difference in gene expression between subditine (1) or non-treated control using the RT Profiler qPCR-array data analysis software.

[3] = system: glutathione reductase (GR) gene expression in LNCaP cells; assay: Oxidative stress and antioxidant defense qPCR-array, LNCaP; type: cell-based, human; conditions: 12.5 µM, 18 h, relative to control cells
Description: as §2, §3

[4] = system: caspase-3/7 in LNCaP cells; assay: Caspase-Glo 3/7 bioluminescent assay, LNCaP; type: cell-based, human
Description: (§4) A time-dependent study of caspase-3/7, -8, and -9 activities was performed in triplicates using assay kits Caspase-Glo 3/7, 8, and 9 (Promega Corp.,Madison,WI, USA) on white 96-well microplate as described previously. A total of 10,000 cells per well was seeded and treated with […] of subditine (1) for 6, 12, 18, 24, and 30 hours. Then, 100 µL of the caspase-Glo reagent was added, incubated at room temperature for 30 minutes and measured using Tecan Infinite 200 Pro (Tecan, Mannedorf, Swizerland) microplate reader.

PC-3 cells = assay: Hoechst 33342 / phalloidin staining, PC-3; type: cell-based, human; conditions: PC-3, 12.5 µM and 25 µM, 24 hours, P<0.05
Description: Cytoskeletal and nuclear morphological changes of LNCaP and PC-3 cells were examined by phalloidin (detects F-actin) and Hoechst 33342 staining. […] At concentration 12.5 µM and 25 µM, nuclear condensation and fragmentation were detected at 24 hours after subditine (1) treatment (Figure 4).
Figure 3 Subditine (1) induced cytoskeletal rearrangement at the peripheral. LNCaP and PC-3 cells were treated with subditine (1) at various concentrations for 24 hours. Cells were fixed and stained with Hoechst (blue) and phalloidin (red) dye which stained nucleus and polymerized actin (F-actin), respectively. Bar chart showing average fluorescent intensity of phalloidin (mean ± S.D.; *p<0.05).
Figure 4 Subditine (1) treatment leads to nuclear DNA fragmentation. LNCaP and PC-3 cells were treated with subditine (1) (12.5 µM and 25 µM) for 24 h. Cells were then fixed and stained with Hoescht 33342 (blue). Red circles indicate DNA shrinkage or fragmentation. Images were captured using Cellomic arrayscan system.

caspase-8 in PC-3 cells = assay: Caspase-Glo 8 bioluminescent assay, PC-3; type: cell-based, human; conditions: PC-3, 12.5 µM, throughout 30 hours
Description: as §4

[5] = system: LNCaP human prostate cancer cells; assay: MTT cell proliferation assay, LNCaP; type: cell-based
Description: Human prostate normal cell line (RWPE-1) and human prostate cancer cell lines; LNCaP and PC-3, were purchased from the American Type Culture Collection (ATCC, Manassas, Virginia, USA). LNCaP and PC-3 cells were grown in Roswell Park Memorial Institute medium (RPMI) supplemented with 10% heat-inactivated fetal bovine serum (FBS, Sigma-Aldrich, St. Louis, MO), 1% penicillin and streptomycin. RWPE-1 cells were maintained in Keratinocyte Serum Free Medium (K-SFM, ATCC) supplemented with bovine pituitary extract (BPE) and human recombinant epidermal growth factor (EGF). Mediums were supplemented with 10% heat-inactivated fetal calf serum (Sigma.), 100 U/ml penicillin and […] streptomycin (Flowlab, Sydney, Australia). All cells were maintained in a humidified atmosphere of 5% CO2 in air at 37°C incubator.
The anti-proliferative activity was evaluated by performing MTT assays as previously described with minor modifications. Briefly, cells were seeded 24 hours prior to treatment in a 96-well plate at 5×10^4 cells/well in order to obtain 70% to 80% confluent cultures. The compounds were dissolved in DMSO (Sigma Chemical Co., St. Louis, Missouri, USA) followed by a 2×serial dilution for 10 points ranged from 0.825 µM to 100 µM. The 96-well plate was incubated for 24 hours at 37°C in a humidified atmosphere with 5% CO2. At the end of incubation, 50 µl of MTT solution (2 mg/ml; Sigma) was added to each well. The plate was then incubated for 4 hours. All medium was removed and the purple formazan crystal formed at the bottom of the wells was dissolved with 200 µl DMSO for 20 minutes. The absorbance at 570 nm was read on a spectrophotometric plate reader (Hidex). The proportion of surviving cells was calculated as: […]
Dose-response curves were constructed to obtain the IC50 values. Experimental data were derived from 3 independent experiments. The selectivity index was obtained by mean IC50 RWPE-1/mean IC50 of LNCaP or PC-3.

[6] = system: Bcl-xL expression in LNCaP cells; assay: Western blotting, Bcl-xL in LNCaP; type: cell-based, human; conditions: 24 h
Description: as §1

Question: What does the source list for `Cc1ncc2c(=O)n3c(cc2c1C=O)-c1[nH]c2ccccc2c1CC3` [Subditine, subditine]?
Answer: Bcl-2 protein expression ([1]; PC-3, 12.5 µM, compared to control): no significant change; Bcl-2 protein expression ([1]; PC-3, 25 and 50 µM): drastically down-regulated; glutathione reductase (GR) gene expression fold change [2]: > 20 fold; glutathione reductase (GR) gene expression fold change [3]: > 100 fold; caspase-3/7 activity ([4]; after 12 and 24 hours exposure, 12.25 µM): significant increase; time of peak caspase-3/7 activity ([4]; time points 6-30 hours): 18 h; nuclear intensity (apoptotic chromatin changes) (PC-3 cells): significantly increased; caspase 8 activity (caspase-8 in PC-3 cells): No significant fold-change; IC50 ([5]; Homo sapiens, MTT, 24 hours, LNCaP, mean ± S.D.): 12.2 ± 0.19 µM; folds more potent against LNCaP than normal prostate cells RWPE-1 ([5]; LNCaP vs RWPE-1): 2.5 folds; selectivity index (SI) LNCaP ([5]; mean IC50 RWPE-1/mean IC50 of LNCaP): 2.49; Bcl-xL expression [6]: down-regulation
